Results on 4 molecules are retold here after US20030055092A1, “Remedies for ischemic stroke” (priority 1998, published 2003).

Test [1] concerns gerbils exposed to 5 min of cerebral ischemia. The settings on record: cited from earlier work.
In test [2] the test system is Fischer-344 rat, permanent left MCA occlusion. Put plainly: permanent MCA occlusion model, cerebral infarct volume (TTC staining). The settings on record: 6 mg/kg/h i.v. continuously for 24 hours from 5 minutes after occlusion. The class given is in vivo. The method, then: Compound A was dissolved in physiological saline and adjusted to 6 mg/3 ml. In accordance with the known method (J. Pharmacol. Exp. Thr., 276, 84-92, 1996), left MCA of a Fischer-344 rat was subjected to permanent occlusion and, 5 minutes thereafter, the compound A was intravenously administered continuously for 24 hours at a rate of 6 mg/a dose volume of 3 ml/kg/h under no anesthesia and no restriction. After completion of the administration, the animal was decapitated to excise the brain which was subsequently stained with 2,3,5-triphenyltetrazolium hydrochloride (TTC) to measure infarct volume.

The next test has as its target T1, mGluR4 (Rattus norvegicus, UniProt P31423).
T1 construct: expressed in transfected cells; host or cells: CHO
Put plainly: forskolin-induced cAMP formation in mGluR4-expressing CHO cells. Conditions: up to 100 μM. It is filed as cell-based. The method, then:
(§1) NIH3T3 cells expressed mGluR1 α and mGluR5a individually were cultured in DMEM medium containing 10% dialyzed fetal bovine serum and 100 units/ml, 0.1 mg/ml streptomycin sulfate. CHO cells which expressed mGluR2, R3, R4, R6 and R7 individually were cultured in DMEM medium containing 10% dialyzed fetal bovine serum, 100 units/ml, 0.1 mg/ml streptomycin sulfate and 2 mM glutamine. Using the cells expressing mGluR2, R3, R4, R6 and R7 cAMP formation induced by forskolin in the presence of IBMX was measured using a cAMP measuring kit as previously described (Neuron, 8, 169-179, 1992).
A general note: cAMP levels reflect the balance of adenylyl cyclase and phosphodiesterase activity.

For another test, the target named is T2, mGluR5 (Rattus norvegicus, UniProt P31424).
T2 construct: expressed in transfected cells; host or cells: NIH3T3
T2 sequence (P31424 21-1171 isoform P31424-2 limits assumed): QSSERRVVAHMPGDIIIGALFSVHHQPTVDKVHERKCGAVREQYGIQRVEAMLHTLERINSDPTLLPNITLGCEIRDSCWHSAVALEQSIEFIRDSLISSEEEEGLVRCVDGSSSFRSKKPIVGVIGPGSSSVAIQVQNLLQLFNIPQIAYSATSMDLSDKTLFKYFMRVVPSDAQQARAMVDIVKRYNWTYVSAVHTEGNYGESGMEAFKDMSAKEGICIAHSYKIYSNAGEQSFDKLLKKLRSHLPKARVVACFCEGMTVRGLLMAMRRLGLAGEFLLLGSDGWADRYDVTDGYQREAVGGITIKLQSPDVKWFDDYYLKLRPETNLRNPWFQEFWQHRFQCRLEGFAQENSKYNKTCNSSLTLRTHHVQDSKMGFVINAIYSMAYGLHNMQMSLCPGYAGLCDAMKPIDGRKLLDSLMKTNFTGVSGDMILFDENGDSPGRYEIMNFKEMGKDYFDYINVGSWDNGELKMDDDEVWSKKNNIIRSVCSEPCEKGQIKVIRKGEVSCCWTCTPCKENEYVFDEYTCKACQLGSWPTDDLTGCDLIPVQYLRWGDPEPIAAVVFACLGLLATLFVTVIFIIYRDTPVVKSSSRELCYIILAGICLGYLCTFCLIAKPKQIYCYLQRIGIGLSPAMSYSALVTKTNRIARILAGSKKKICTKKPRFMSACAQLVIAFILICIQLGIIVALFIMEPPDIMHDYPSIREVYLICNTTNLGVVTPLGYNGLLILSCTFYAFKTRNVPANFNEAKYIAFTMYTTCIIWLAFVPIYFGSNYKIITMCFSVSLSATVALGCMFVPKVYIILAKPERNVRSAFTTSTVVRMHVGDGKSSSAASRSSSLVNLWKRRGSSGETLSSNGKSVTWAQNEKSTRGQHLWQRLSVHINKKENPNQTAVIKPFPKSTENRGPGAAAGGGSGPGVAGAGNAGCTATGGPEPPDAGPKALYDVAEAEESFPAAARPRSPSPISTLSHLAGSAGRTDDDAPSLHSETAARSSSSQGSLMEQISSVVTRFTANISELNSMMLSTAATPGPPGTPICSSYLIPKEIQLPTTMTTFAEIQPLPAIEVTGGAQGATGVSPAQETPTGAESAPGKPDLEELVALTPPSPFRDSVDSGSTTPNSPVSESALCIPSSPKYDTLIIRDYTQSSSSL
Put plainly: agonist/antagonist activity in mGluR5a-expressing NIH3T3 cells. Conditions: up to 10 μM. It is filed as cell-based. The protocol:
NIH3T3 cells expressed mGluR1 α and mGluR5a individually were cultured in DMEM medium containing 10% dialyzed fetal bovine serum and 100 units/ml, 0.1 mg/ml streptomycin sulfate. CHO cells which expressed mGluR2, R3, R4, R6 and R7 individually were cultured in DMEM medium containing 10% dialyzed fetal bovine serum, 100 units/ml, 0.1 mg/ml streptomycin sulfate and 2 mM glutamine.

The target of another test is T3, mGluR1α (Rattus norvegicus, UniProt P23385).
T3 construct: expressed in transfected cells; host or cells: NIH3T3
T3 sequence (P23385 19-1199): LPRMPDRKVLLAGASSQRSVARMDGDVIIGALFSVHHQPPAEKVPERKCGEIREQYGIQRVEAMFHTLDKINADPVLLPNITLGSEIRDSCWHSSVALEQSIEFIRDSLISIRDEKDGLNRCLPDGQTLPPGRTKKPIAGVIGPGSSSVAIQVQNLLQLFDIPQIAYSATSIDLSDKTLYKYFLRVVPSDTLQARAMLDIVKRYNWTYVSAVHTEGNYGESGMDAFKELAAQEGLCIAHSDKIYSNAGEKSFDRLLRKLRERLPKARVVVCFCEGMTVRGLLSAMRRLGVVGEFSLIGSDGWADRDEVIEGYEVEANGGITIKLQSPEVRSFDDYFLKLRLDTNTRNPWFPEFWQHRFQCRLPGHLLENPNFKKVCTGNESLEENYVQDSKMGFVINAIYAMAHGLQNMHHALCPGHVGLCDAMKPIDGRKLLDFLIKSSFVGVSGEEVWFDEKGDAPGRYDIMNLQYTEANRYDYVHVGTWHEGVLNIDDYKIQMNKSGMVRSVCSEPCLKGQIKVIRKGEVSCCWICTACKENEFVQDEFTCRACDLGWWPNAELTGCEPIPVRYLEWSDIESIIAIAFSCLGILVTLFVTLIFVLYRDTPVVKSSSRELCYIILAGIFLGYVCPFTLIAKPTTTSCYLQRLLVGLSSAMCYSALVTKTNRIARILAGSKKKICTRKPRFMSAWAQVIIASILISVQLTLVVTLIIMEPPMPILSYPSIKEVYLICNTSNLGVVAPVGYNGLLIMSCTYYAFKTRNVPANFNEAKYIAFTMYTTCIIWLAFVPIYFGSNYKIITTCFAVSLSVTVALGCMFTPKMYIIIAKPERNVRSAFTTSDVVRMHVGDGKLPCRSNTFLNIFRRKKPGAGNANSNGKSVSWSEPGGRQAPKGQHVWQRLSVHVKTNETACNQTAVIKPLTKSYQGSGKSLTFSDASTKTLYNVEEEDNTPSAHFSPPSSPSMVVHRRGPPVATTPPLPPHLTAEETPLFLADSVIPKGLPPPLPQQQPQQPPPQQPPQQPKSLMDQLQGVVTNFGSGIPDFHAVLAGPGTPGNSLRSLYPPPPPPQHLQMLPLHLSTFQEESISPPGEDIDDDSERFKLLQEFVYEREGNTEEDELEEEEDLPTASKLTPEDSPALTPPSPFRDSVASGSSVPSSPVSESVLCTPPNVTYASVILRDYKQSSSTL
In words: glutamate-induced phosphatidylinositol (PI) hydrolysis in mGluR1α-expressing cells. The settings on record: 100 μM glutamate, read-out: IC50 for inhibition of glutamate-induced PI formation against mGluR1α. It is filed as cell-based. The method, then:
NIH3T3 cells expressed mGluR1 α and mGluR5a individually were cultured in DMEM medium containing 10% dialyzed fetal bovine serum and 100 units/ml, 0.1 mg/ml streptomycin sulfate. CHO cells which expressed mGluR2, R3, R4, R6 and R7 individually were cultured in DMEM medium containing 10% dialyzed fetal bovine serum, 100 units/ml, 0.1 mg/ml streptomycin sulfate and 2 mM glutamine. Hydrolysis of phosphatidylinositol was measured as previously described (Nature, 383, 89-92, 1996) using the mGluR1 α-expressing cells incorporated ^3H-inositol.

The target in another test is T4, mGluR6 (Rattus norvegicus, UniProt P35349).
T4 construct: expressed in transfected cells; host or cells: CHO
Put plainly: forskolin-induced cAMP formation in mGluR6-expressing CHO cells. It is filed as cell-based. The settings on record: up to 100 μM. The protocol:
as §1

Another test addresses T5, mGluR2 (Rattus norvegicus, UniProt P31421).
T5 construct: expressed in transfected cells; host or cells: CHO
In words: forskolin-induced cAMP formation in mGluR2-expressing CHO cells. It is filed as cell-based. Conditions: up to 100 μM. The method, then:
as §1

In a further test the target is T6, mGluR7 (Rattus norvegicus, UniProt P35400).
T6 construct: expressed in transfected cells; host or cells: CHO
Put plainly: forskolin-induced cAMP formation in mGluR7-expressing CHO cells. The class given is cell-based. Conditions: up to 100 μM. The protocol: as §1

The next test concerns the target T7, mGluR3 (Rattus norvegicus, UniProt P31422).
T7 construct: expressed in transfected cells; host or cells: CHO
Put plainly: forskolin-induced cAMP formation in mGluR3-expressing CHO cells. The class given is cell-based. The settings on record: up to 100 μM. The method, then:
as §1

T7 sequence (P31422 23-879): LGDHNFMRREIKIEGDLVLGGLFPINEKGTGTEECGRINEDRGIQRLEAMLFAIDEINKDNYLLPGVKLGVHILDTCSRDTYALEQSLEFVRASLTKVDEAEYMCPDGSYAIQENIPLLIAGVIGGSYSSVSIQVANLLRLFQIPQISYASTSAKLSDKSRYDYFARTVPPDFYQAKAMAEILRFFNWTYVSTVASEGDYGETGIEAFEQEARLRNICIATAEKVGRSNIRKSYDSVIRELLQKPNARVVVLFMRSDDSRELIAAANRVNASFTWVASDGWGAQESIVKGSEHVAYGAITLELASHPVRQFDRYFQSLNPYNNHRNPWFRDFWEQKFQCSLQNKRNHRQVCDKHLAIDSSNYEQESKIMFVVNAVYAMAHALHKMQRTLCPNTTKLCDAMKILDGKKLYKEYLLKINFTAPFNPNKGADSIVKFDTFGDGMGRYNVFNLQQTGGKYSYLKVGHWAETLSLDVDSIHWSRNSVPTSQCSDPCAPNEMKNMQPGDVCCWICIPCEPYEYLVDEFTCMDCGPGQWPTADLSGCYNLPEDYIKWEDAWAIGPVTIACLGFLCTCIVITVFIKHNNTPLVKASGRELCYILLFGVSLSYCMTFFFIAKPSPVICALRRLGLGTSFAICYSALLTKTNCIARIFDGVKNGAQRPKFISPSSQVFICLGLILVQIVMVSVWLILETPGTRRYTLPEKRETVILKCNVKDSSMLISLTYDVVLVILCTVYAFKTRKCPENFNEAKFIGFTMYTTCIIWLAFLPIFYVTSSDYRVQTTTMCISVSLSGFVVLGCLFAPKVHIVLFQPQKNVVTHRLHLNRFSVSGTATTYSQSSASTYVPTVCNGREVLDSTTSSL
T5 sequence (P31421 19-872): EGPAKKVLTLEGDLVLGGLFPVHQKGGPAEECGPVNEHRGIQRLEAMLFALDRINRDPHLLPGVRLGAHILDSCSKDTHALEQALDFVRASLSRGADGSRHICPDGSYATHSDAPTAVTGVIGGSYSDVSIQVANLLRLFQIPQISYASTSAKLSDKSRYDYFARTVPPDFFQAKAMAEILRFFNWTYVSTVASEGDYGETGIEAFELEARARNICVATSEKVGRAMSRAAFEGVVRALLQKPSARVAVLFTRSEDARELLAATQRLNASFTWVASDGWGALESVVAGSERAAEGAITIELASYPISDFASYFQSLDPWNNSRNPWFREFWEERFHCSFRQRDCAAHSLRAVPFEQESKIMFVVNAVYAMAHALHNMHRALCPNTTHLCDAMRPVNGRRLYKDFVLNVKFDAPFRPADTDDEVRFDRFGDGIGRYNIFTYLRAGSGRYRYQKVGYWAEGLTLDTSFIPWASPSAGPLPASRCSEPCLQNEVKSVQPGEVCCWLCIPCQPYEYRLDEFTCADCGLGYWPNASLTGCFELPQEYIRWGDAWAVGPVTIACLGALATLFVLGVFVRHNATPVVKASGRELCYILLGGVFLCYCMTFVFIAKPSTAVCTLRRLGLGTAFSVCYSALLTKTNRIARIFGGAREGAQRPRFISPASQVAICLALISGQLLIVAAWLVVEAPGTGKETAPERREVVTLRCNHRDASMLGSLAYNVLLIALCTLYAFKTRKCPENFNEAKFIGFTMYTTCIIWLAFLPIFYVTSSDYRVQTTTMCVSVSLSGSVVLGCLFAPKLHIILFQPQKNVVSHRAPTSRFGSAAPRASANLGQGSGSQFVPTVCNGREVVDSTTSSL
T1 sequence (P31423 33-912): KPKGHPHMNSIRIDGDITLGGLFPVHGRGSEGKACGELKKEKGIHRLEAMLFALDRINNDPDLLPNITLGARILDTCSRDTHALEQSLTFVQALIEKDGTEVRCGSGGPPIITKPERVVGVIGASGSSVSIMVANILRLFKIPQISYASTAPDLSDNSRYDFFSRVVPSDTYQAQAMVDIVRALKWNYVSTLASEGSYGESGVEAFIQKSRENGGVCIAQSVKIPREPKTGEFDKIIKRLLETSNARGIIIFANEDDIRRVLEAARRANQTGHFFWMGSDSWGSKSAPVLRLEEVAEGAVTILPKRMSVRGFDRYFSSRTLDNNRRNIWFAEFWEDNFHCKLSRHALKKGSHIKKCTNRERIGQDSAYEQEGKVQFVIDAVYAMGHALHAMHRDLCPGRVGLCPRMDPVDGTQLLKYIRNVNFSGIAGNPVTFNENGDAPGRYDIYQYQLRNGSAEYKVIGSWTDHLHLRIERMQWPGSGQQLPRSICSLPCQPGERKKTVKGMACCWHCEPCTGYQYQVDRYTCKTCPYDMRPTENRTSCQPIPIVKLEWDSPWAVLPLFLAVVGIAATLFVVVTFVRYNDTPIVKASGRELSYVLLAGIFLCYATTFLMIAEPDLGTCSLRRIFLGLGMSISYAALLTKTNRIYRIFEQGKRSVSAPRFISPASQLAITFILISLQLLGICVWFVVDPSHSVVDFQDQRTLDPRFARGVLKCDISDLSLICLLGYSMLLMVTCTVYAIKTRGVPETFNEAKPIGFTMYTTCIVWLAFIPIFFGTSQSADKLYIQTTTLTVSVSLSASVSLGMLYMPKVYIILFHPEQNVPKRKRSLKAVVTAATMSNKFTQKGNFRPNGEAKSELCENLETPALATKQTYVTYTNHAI

Turning to `N[C@H](C(=O)O)c1ccc(C(=O)O)cc1` [4 CPG, (S)-4-carboxyphenylglycine], in [1], the “neuroprotective effectiveness in the same gerbil model” value is “is not effective”.
The IC50 is the concentration needed to halve the response being measured. For the molecule `Cc1c(C(=O)N(C)C2CCCCC2)sc2nc3ccc(N)cc3n12.Cl.Cl` [compound A, 6-amino-N-cyclohexyl-N,3-dimethylthiazolo[3,2-a]benzoimidazole-2-carboxamide dihydrochloride], in test [2], the “cerebral infarct volume suppression ratio in cerebral cortex” value is 36%, the “cerebral infarct volume suppression ratio in cerebral hemisphere” value turned out to be 29% and the “effect on cerebral infarct volume versus controls” value is reported as “reduced the cerebral infarct volume significantly”. Moreover, the “agonist and antagonist activities against mGluR4” value at mGluR4 was “no agonist and antagonist activities”. Besides, the “agonist and antagonist activities against mGluR5” value on mGluR5 was “no agonist and antagonist activities”. On mGluR1α, the IC50 amounted to 0.024 µM. Also, the “agonist and antagonist activities against mGluR6” value at mGluR6 was “no agonist and antagonist activities”. For the same molecule, the “agonist and antagonist activities against mGluR2” value at mGluR2 was “no agonist and antagonist activities”. Also, the “agonist and antagonist activities against mGluR7” value on mGluR7 was “no agonist and antagonist activities”. In addition, on mGluR3, the “agonist and antagonist activities against mGluR3” value was “no agonist and antagonist activities”.
As to `N[C@H](C(=O)O)c1ccc(C(=O)O)c(O)c1` [4 C3 HPG, (S)-4-carboxy-3 hydroxyphenylglycine], in [1], the “neuroprotective effectiveness in the same gerbil model” value was “is effective”.
Turning to `NC1(C(=O)O)CCc2cc(C(=O)O)ccc21` (stereo not shown) [AIDA], the “loss of neuronal cells in CA1 area” value in test [1] (intraventricular administration) is reported as “reduced the loss of the neuronal cells”.
